From patent US12473249B2, “Aromatic compounds and pharmaceutical uses thereof” (BASF AS, priority 2018, dated 2025)

Assays:
Assay type in all cases: in vivo, mouse
[1] = Relative bodyweight in ob/ob AMLN mice; conditions: 0.3 mmol/kg bw day, 4 weeks treatment, FIG. 11
Protocol: (§1) ob/ob mice are consistently fibrosis (liver) prone when cholesterol (2%) and 40% fat (containing 18% trans-fatty acids) and 20% fructose are added to a high-caloric diet (i.e., AMLN diet). ob/ob mice on AMLN diet (termed ‘ob/ob AMLN mice’) develop steatohepatitis and fibrosis within a shorter timeframe (<12 weeks) compared with wild-type C57BL/6 mice (AMLN mice) fed the same diet. ob/ob AMLN mice provide an obese diet-induced model of NASH that also allows the study of effects on glycemic control.
(§2) Thirty male ob/ob mice (5 weeks old) were fed the AMLN diet for 15 weeks then randomised into 3 groups of 10 mice/group to receive Compound B or Compound A (both at 0.3 mmol/kg bw day) or no treatment (vehicle) for a further 4 weeks. Assessment of the hepatic expression of key genes regulating plasma lipid concentrations (LDLr), hepatic fibrosis (collA1), bile acid transport/re-uptake (Slc51b and Slc10a2) and inflammation (CD68) was made via RNA sequencing at 4 weeks. To assess the effects of Compound B and Compound A on glycemic control, an oral glucose tolerance test (OGTT) was also performed at 3 weeks. An additional group of mice (n=5) were also treated with a PPAR-γ agonist (pioglitazone, 30 mg/kg bw day) was also included to compare effects upon bodyweight.

C57BL/6 mice [2] = assay: Hepatic steatosis and organ mass in oral PN diet fed C57BL/6 mice, subsequent experiment at two dosages (H&E); conditions: 19 days
From the text: (§3) Male C57BL/6 mice, 6 to 8 weeks old at initiation of the experiments, were used for all experimental groups. Mice were fed either an ad libitum diet of standard rodent chow (calorie composition: 26% protein, 14% fat, 60% carbohydrates) and water or a parenteral nutrition (PN) solution that mimics the PN diet used in neonatal intensive care units. The PN solution was a fat-free, high-carbohydrate liquid diet (20% dextrose, 2% essential and nonessential amino acids, 0.2% pediatric trace elements, 0.5% pediatric multivitamins, 30 mEq of sodium, 20 mEq of potassium, 15 mEq of calcium (as calcium gluconate), 10 mEq of magnesium, 10 mEq of phosphate, 5 mEq of acetate, and 30 mEq of chloride per liter) administered as a single 50 mL bottle per cage which mice consumed ad libitum. […] Prince et al., JPEN J Parenter Enteral Nutr., 2014; 38(5): 608-616.
In a subsequent experiment, both Compound A and Compound B were tested at two dosages. The results of this experiment are described in Example 15.
Male C57BL/6 mice, 6 to 8 weeks old at initiation of the experiments, were used for all experimental groups. One group was fed an ad libitum diet of standard rodent chow and water. The group fed standard rodent chow received no additional treatments during the experimental period and served as a negative control group. Seven other groups (10 mice per group) were fed the PN solution described above ad libitum.
Of the seven groups that received the PN diet, each group received one of the following orogastric protocols administered every other day over 19 days: • (1) Saline: saline solution administered isovolumetric with the Omegaven® group; • (2) MCT: medium-chain triglyceride oil (MCT) (Nestle™ HealthCare Nutrition, Florham Park, NJ), at a dose of 7.4 g of fat/kg body weight; • (3) Omegaven®: Omegaven® (commercial fish oil lipid emulsion) at a dose of 2.4 g fat/kg body weight; • (4) Compound A LOW: Compound A at a dose of 0.3 mmol/kg bw day (diluted in MCT to 0.0375 mmol/mL, resulting in administration of 7.4 g of MCT/kg weight); • (5) Compound A HI: Compound A at a dose of 0.6 mmol/kg bw day (diluted in MCT to 0.075 mmol/mL, resulting in administration of 7.4 g of MCT/kg weight); • (6) Compound B LOW: Compound B at a dose of 0.3 mmol/kg bw day (diluted in MCT to 0.0375 mmol/mL, resulting in administration of 7.4 g of MCT/kg weight); and • (7) Compound B HI: Compound B at a dose of 0.6 mmol/kg bw day (diluted in MCT to 0.075 mmol/mL, resulting in administration of 7.4 g of MCT/kg weight).
After 19 days of treatment, organs were harvested, including the liver, kidney, and spleen, which were analyzed for relative weight between each group. Livers were also fixed and frozen on dry ice, then stored at −80° C. for hematoxylin and eosin (H&E) stain analysis and Oil Red O analysis.

[3] = test system: hepatic expression of key genes; assay: Hepatic target gene expression via RNA sequencing in ob/ob AMLN mice; conditions: 0.3 mmol/kg bw day, 4 weeks treatment
Protocol: as §1, §2

ob/ob AMLN mice = assay: Glycemic control (oral glucose tolerance test, fasting glucose and insulin) in ob/ob AMLN mice; conditions: 0.3 mmol/kg bw day
Protocol: as §1
as §2, with “To assess the effects of Compound B and Compound A on glycemic control, an oral glucose tolerance test (OGTT) was also performed at 3 weeks.” left out

C57BL/6 mice [4] = assay: Hepatic steatosis in oral PN diet fed C57BL/6 mice, initial experiment (Oil Red O); conditions: 19 days, 0.3 mmol/kg bw day in MCT by orogastric gavage
From the text: as §3
In the initial experiment, only Compound A was tested. The results of this experiment are described in Example 14.
Male C57BL/6 mice, 6 weeks old at initiation of experiments, were divided into three groups (10 mice per group). One group was fed an ad libitum diet of standard rodent chow and water. The group fed standard rodent chow received no additional treatments during the experimental period and served as a negative control group. The two other groups were fed the above-described PN diet. […]

[5] = oral PN diet, high and low dosages, FIG. 18

SMILES: CCCCCOc1cccc(C(=O)O)c1C [Compound A, 2-methyl-3-(pentyloxy)benzoic acid]
- relative bodyweight versus vehicle [1]: significantly decreased
- development of steatosis induced by an oral PN diet (H&E stain in isolated liver sections) (C57BL/6 mice [2]; 0.3 and 0.6 mmol/kg bw day in MCT by orogastric gavage, FIGS. 14-17): prevented the development of steatosis
- body mass vs chow-fed or PN-fed saline groups (C57BL/6 mice [2]; [5]): not significantly different
- liver/body mass vs chow-fed or PN-fed saline groups (C57BL/6 mice [2]; [5]): not significantly different
- spleen/body mass vs chow-fed or PN-fed saline groups (C57BL/6 mice [2]; [5]): not significantly different
- hepatic expression of Coll al (collagen1a1) versus vehicle ([3]; FIG. 5): significantly reduce
- hepatic expression of Slc10a2 versus vehicle ([3]; FIG. 6): significantly decreases
- hepatic expression of Slc51b versus vehicle ([3]; FIG. 7): significantly decreases
- hepatic expression of ABCC2 versus vehicle ([3]; FIG. 8): significantly increases
- hepatic expression of CYP7A1 ([3]; FIG. 9): reduces
- hepatic expression of CD68 versus vehicle ([3]; FIG. 10): significantly decreases
- expression of hepatic LDLr versus vehicle ([3]; FIG. 12): significantly increase
- total plasma glucose (area-under-the-curve from 0-240 mins) versus vehicle in response to an oral glucose load (ob/ob AMLN mice; after 3 weeks treatment, FIG. 1): significantly reduce
- plasma glucose at 30- and 60-mins versus vehicle in response to an oral glucose load (ob/ob AMLN mice; after 3 weeks treatment, FIG. 2): significantly reduce
- fasting plasma insulin versus vehicle (ob/ob AMLN mice; after 4 weeks treatment, FIG. 3): reduce
- fasting plasma glucose versus vehicle (ob/ob AMLN mice; after 4 weeks treatment, FIG. 4): significantly reduce
- development of steatosis induced by an oral PN diet (Red Oil O stain in isolated liver sections) (C57BL/6 mice [4]; FIG. 13): prevented the development of steatosis
- liver architecture (C57BL/6 mice [4]; oral PN diet): Normal liver architecture
